# Measured values taken from patent US20220016101A1 (ACADIA Pharmaceuticals Inc., priority 2018, published 2022).
# System: patients with MDD and an inadequate response to an SSRI or SNRI
# Experiment: Massachusetts General Hospital Sexual Functioning Index (MGH-SFI), Study ACP-103-042
# Assay type: in vivo, human
# From the text: “Massachusetts General Hospital Sexual Functioning Index (MGH-SFI)” is described, for instance, in Labbate and Lare, 2001, Psychother Psychosom. 70(4):221-225. This is a patient facing questionnaire that quantifies sexual dysfunction into 5 functional domains (“interest in sex,” “sexual arousal,” “ability to achieve orgasm,” “ability to maintain erection” (males only), and “sexual satisfaction”). Patients rate each item using a 6-point scale ranging from 1 (good function) to 6 (poor function). High scores indicate poor sexual functioning. […] The determination of the subject's status and eligibility for randomization in Stage 2 was made in a double-blind manner. […] Sexual functioning was assessed using the Massachusetts General Hospital Sexual Functioning Index or MGH-SFI (Labbate and Lare, 2001, Psychother Psychosom. 70(4):221-225). This is a patient facing questionnaire that quantifies sexual dysfunction into 5 functional domains (“interest in sex,” “sexual arousal,” “ability to achieve orgasm,” “ability to maintain erection” [malesonly], and “sexual satisfaction”). Patients rate each item using a 6-point scale ranging from 1 (good function) to 6 (poor function). The time frame for this scale is the past month. This scale was administered at baseline and Week 5 in both stages of the study. High scores indicate poor sexual functioning. In ACP-103-042 the mean scores for MGH-SFI at Baseline was calculated over all 5 domains for males and the 4 domains for females. For MGH-SFI (follow-up version) at Study Weeks 5 and 10, the mean was calculated in the same way as MGH-SFI at Baseline. […] Tables 10-27 summarize the detailed data of MGH-SFI individual items of the overall study group (Tables 10-15), the subgroup of age of <=50 (Tables 16-21) and the subgroup of age of >50 (Table 21-26). In Tables 9-26, ANCOVA=analysis of covariance; OC=observed cases; LSM=least squares mean; CI=confidence interval; SD=standard deviation; SE=standard error. Stage 1: Baseline=Study Week 0, Week 5=Study Week 5; Stage 2: Baseline=Study Week 5, Week 5=Study Weeks 10. LSM from the stage-specific ANCOVA analysis with the change from baseline as the outcome, treatment group as a factor, and the corresponding Baseline value as a covariate. 2-sided p-value for treatment difference from the stage-specific ANCOVA analysis. An treatment effect size (Cohen's d) is calculated using the formula: Effect Size=Least Square mean difference between PIM and PBO/SD. The corresponding 95% confidence interval for an effect size is calculated based on the theoretical probability distribution of the effect size. […] Tables 10-15 and 28-38 summarize the detailed data of MGH-SFI individual items of the overall study group (Tables 10-15), the female subgroup (Tables 33-37) and the male subgroup (Table 38-43). An treatment effect size (Cohen's d) is calculated using the formula: Effect Size=Least Square mean difference between PIM and PBO/SD. The corresponding 95% confidence interval for an effect size is calculated based on the theoretical probability distribution of the effect size. In Tables 10-15 and 28-38, ANCOVA=analysis of covariance; OC=observed cases; LSM=least squares mean; CI=confidence interval; SD=standard deviation; SE=standard error. Stage 1: Baseline=Study Week 0, Week 5=Study Week 5; Stage 2: Baseline=Study Week 5, Week 5=Study Weeks 10. LSM from the stage-specific ANCOVA analysis with the change from baseline as the outcome, treatment group as a factor, and the corresponding Baseline value as a covariate. 2-sided p-value for treatment difference from the stage-specific ANCOVA analysis. An treatment effect size (Cohen's d) is calculated using the formula: Effect Size=Least Square mean difference between PIM and PBO/SD. The corresponding 95% confidence interval for an effect size is calculated based on the theoretical probability distribution of the effect size.
# [1] = male subgroup, Stage 2, PIM 34 mg
# [2] = male subgroup, Stage 2, PIM 34 mg vs placebo, change from baseline to Week 5
# [3] = male subgroup, Stage 2, PIM 34 mg, Week 5
# [4] = subgroup <=50 years old, Stage 1, PIM 34 mg
compound,measurement,setting,value
"CC(C)COc1ccc(CNC(=O)N(Cc2ccc(F)cc2)C2CCN(C)CC2)cc1 [pimavanserin, N-(4-Fluorophenylmethyl)-N-(1-methylpiperidin-4-yl)-N′-(4-(2-methylpropyloxy)phenylmethyl)carbamide]","MGH-SFI Item 02: Ability to Get Sexually Aroused or Excited, Change from Baseline to Week 5, Median",[1],−1.0
same,"MGH-SFI Item 03: Ability to Achieve Orgasm, Change from Baseline to Week 5, Mean (SE)",[1],−0.8 (0.36)
same,"MGH-SFI Item 03: Ability to Achieve Orgasm, Change from Baseline to Week 5, Median",[1],0.0
same,"MGH-SFI Item 04: (Men) Ability to Get and Maintain an Erection, Change from Baseline to Week 5, Mean (SE)",[1],−1.0 (0.41)
same,"MGH-SFI Item 04: (Men) Ability to Get and Maintain an Erection, Change from Baseline to Week 5, Median",[1],−1.0
same,"MGH-SFI Item 05: Overall Sexual Satisfaction, Change from Baseline to Week 5, Mean (SE)",[1],−1.4 (0.50)
same,"MGH-SFI Item 05: Overall Sexual Satisfaction, Change from Baseline to Week 5, Median",[1],−1.0
same,"MGH-SFI Item 06: Overall Improvement Since Last Medication Change, Effect Size (Cohen's d)","male subgroup, Stage 2, PIM 34 mg vs placebo, Week 5",0.405
same,"MGH-SFI Item 02: Ability to Get Sexually Aroused or Excited, Effect Size (Cohen's d)",[2],−0.154
same,"MGH-SFI Item 03: Ability to Achieve Orgasm, Effect Size (Cohen's d)",[2],0.497
same,"MGH-SFI Item 04: (Men) Ability to Get and Maintain an Erection, Effect Size (Cohen's d)",[2],0.701
same,"MGH-SFI Item 05: Overall Sexual Satisfaction, Effect Size (Cohen's d)",[2],0.511
same,"MGH-SFI Item 02: Ability to Get Sexually Aroused or Excited, Week 5, Mean (SE)",[3],3.6 (0.47)
same,"MGH-SFI Item 02: Ability to Get Sexually Aroused or Excited, Week 5, Median",[3],4.0
same,"MGH-SFI Item 03: Ability to Achieve Orgasm, Week 5, Mean (SE)",[3],3.6 (0.56)
same,"MGH-SFI Item 03: Ability to Achieve Orgasm, Week 5, Median",[3],4.0
same,"MGH-SFI Item 04: (Men) Ability to Get and Maintain an Erection, Week 5, Mean (SE)",[3],3.1 (0.54)
same,"MGH-SFI Item 04: (Men) Ability to Get and Maintain an Erection, Week 5, Median",[3],4.0
same,"MGH-SFI Item 05: Overall Sexual Satisfaction, Week 5, Mean (SE)",[3],3.0 (0.53)
same,"MGH-SFI Item 05: Overall Sexual Satisfaction, Week 5, Median",[3],3.0
same,"MGH-SFI Item 06: Overall Improvement Since Last Medication Change, Week 5, Mean (SE)",[3],3.7 (0.53)
same,"MGH-SFI Item 06: Overall Improvement Since Last Medication Change, Week 5, Median",[3],4.0
same,"MGH-SFI 01: Interest in Sex, Effect Size (Cohen's d)","male subgroup, Stage 2, positive = pimavanserin better than placebo",0.174
same,"MGH-SFI Items 1, 2, 3, and 5 mean change from baseline to Week 5 vs placebo",overall study group,significantly greater
same,"MGH-SFI 04: (Men) Ability to Get and Maintain an Erection, Change from Baseline to Week 5 Mean (SE)",[4],−1.7 (1.45)
same,"MGH-SFI 04: (Men) Ability to Get and Maintain an Erection, Change from Baseline to Week 5 Median",[4],−2.0
same,"MGH-SFI 04: (Men) Ability to Get and Maintain an Erection, Week 5 Mean (SE)",[4],2.3 (0.67)
same,"MGH-SFI 04: (Men) Ability to Get and Maintain an Erection, Week 5 Median",[4],3.0
same,"MGH-SFI 05: Overall Sexual Satisfaction, Change from Baseline to Week 5 Mean (SE)",[4],−0.5 (0.35)
same,"MGH-SFI 05: Overall Sexual Satisfaction, Change from Baseline to Week 5 Median",[4],0.0
same,"MGH-SFI 05: Overall Sexual Satisfaction, Week 5 Mean (SE)",[4],3.6 (0.43)
same,"MGH-SFI 05: Overall Sexual Satisfaction, Week 5 Median",[4],4.0
same,"MGH-SFI 06: Overall Improvement Since Last Medication Change, Week 5 Mean (SE)",[4],3.0 (0.24)
same,"MGH-SFI 06: Overall Improvement Since Last Medication Change, Week 5 Median",[4],3.0
same,"MGH-SFI 04: (Men) Ability to Get and Maintain an Erection, Effect Size (Cohen's d)","subgroup <=50 years old, Stage 1, PIM 34 mg vs placebo",0.877
